Results published in paper PMC539285, “Anti-Plasmodium activity of ceramide analogs” (Malaria Journal, 2004).

Assays:
[1] = test system: P. falciparum sphingomyelin synthase activity; assay: Sphingomyelin synthase activity assay in trophozoite cultures (NBD-C6-ceramide); format: cell-based, Plasmodium falciparum; conditions: trophozoites 20-30 h, 0-500 μM drug, 10 μM NBD-C6-ceramide, 60 min, 37°C
Description: SPM synthase activity was measured as described by Haldar et al.. Briefly, assays were performed on P. falciparum cultures at the trophozoite stage (20–30 h old parasites). 400 μl of culture (1 × 10^8 parasites) were incubated for 60 min at 37°C with 10 μM NBD-C6-ceramide and 0 to 500 μM PPMP or AD2646. Cells were then lysed by freezing and thawing of the culture. Lipids were extracted by a modification of the method of Bligh and Dyer. To each sample, three volumes of a CH3OH/CHCl3 mixture (1:2, v:v) were added and the mixture vortexed for one min. Organic and aqueous phases were separated by centrifugation (12,000 × g, five min) and the organic phase was dried. Lipids were dissolved in 15 μl ethanol and analysed by thin layer chromatography on HPTLC plates (Silica gel 60 F254, Merck, Darmstadt, Germany) in CH3OH/[…]/NH4OH (75:25:4, v:v:v). For qualitative analyses, the fluorescent lipids were detected under UV and for quantitative analyses, the fluorescent lipid spots were scraped, eluted in one ml methanol and quantified at an excitation of 470 nm and an emission of 530 nm in a spectrofluorometer. The percentage of SPM synthase activity for each drug concentration was determined by comparison of the fluorescence quantified in the analog-treated culture with that in the control culture (without drug).

[2] = test system: P. falciparum; assay: Apoptosis of parasites (TdT DNA fragmentation assay, gel electrophoresis, fluorescence microscopy); format: cell-based, Plasmodium falciparum; conditions: 1 μM for up to 36 hours (unpublished data, preliminary)
Description: Ceramide is at the parting of different ways of sphingolipid metabolism. Analogs have the potential to inhibit different ceramide-metabolizing enzymes and then might have a pleiotropic effect. Ceramide analogs in amide linkage were described as potent inhibitors of alkaline ceramidase in HL60 human myeloid leukemic cells. Methylene analogs inhibit the biosynthesis of SPM and glycosphingolipids in HL60 cells, and acid ceramidase in vitro [10]. When applied to cancer cells, such analogs induced an elevation of the endogenous level of ceramide with the consequent effects of growth suppression and cell death by apoptosis. […] Apoptosis in P. falciparum is still controversial although some characteristics of apoptosis has been described in Plasmodium. […] The hypothesis that AD2646 induced parasite death through modulation of endogenous ceramide level, as observed for cancer cells, is under investigation.

[3] = test system: erythrocytes; assay: Lysis of normal and infected erythrocytes; format: cell-based, human; conditions: 250 nM, 48 hours
Description: By their lipidic nature, these analogs might act through a detergent effect that could lead to lysis or modification of the integrity of infected-erythrocyte membranes. This apparently is not the case. No significant lysis of normal erythrocytes was observed after 48 hous of incubation with concentrations of analogs up to 10 μM (data not shown).

[4] = test system: FcB1 strain; assay: Drug combination with antimalarial drugs, strain FcB1; format: cell-based, Plasmodium falciparum; conditions: FcB1 strain (data not shown)
Description: Compound AD2646 (Figure 1) was selected to further investigate the biological effects of methylene analogs on parasite development.

[5] = test system: P. falciparum strain K1; assay: Anti-Plasmodium activity, strain K1; format: cell-based
Description: (§1) P. falciparum strains (FcB1/Colombia, K1/Thailand, F32/Tanzania, W2/Indochina) were maintained in continuous culture on human erythrocytes in RPMI medium containing 7% (v/v) heat-inactivated human serum under an atmosphere of 3% CO2, 6% O2, 91% N2, at 37°C, as described by Trager and Jensen. Parasite synchronization was performed successively by treatment with 5% (w/v) sorbitol and by concentration in gelatin solution as previously described.
Drug susceptibility assays were performed using a modification of the semi automated microdilution technique of Desjardins et al.. Stock solutions of test compounds were prepared in DMSO. Drug solutions were serially diluted twofold with 100 μl culture medium in 96-well plates. Asynchronous parasite cultures (100 μl, 1 % parasitemia and 1 % final hematocrite) were added to each well and incubated for 24 hours at 37°C prior to the addition of 0.5 μCi of [^3H] hypoxanthine (Amersham, France, 1 to 5 Ci.mmol/ml) per well. After a further incubation of 24 hour, plates were frozen and thawed. Cell lysates were then collected onto glass-filter papers and counted in a liquid scintillation spectrometer. The growth inhibition for each drug concentration was determined by comparison of the radioactivity incorporated in the treated culture with that in the control culture (having the same final % of DMSO) maintained on the same plate. […]

[6] = test system: chloroquine-resistant strain FcB1 of P. falciparum; assay: Anti-Plasmodium activity, [3H]hypoxanthine microdilution on asynchronous cultures; format: cell-based, Plasmodium falciparum
Description: as §1
Drug susceptibility assays were performed using a modification of the semi automated microdilution technique of Desjardins et al.. Stock solutions of test compounds were prepared in DMSO. Drug solutions were serially diluted twofold with 100 μl culture medium in 96-well plates. Asynchronous parasite cultures (100 μl, 1 % parasitemia and 1 % final hematocrite) were added to each well and incubated for 24 hours at 37°C prior to the addition of 0.5 μCi of [^3H] hypoxanthine (Amersham, France, 1 to 5 Ci.mmol/ml) per well. After a further incubation of 24 hour, plates were frozen and thawed. Cell lysates were then collected onto glass-filter papers and counted in a liquid scintillation spectrometer. The growth inhibition for each drug concentration was determined by comparison of the radioactivity incorporated in the treated culture with that in the control culture (having the same final % of DMSO) maintained on the same plate. The concentration causing 50% growth inhibition (IC50) and 90% growth (IC90) were obtained from the drug concentration-response curve and the results were expressed as the means ± the standard deviations determined from several independent experiments.

CCCCCCCCCCCCCCN[C@H](CO)[C@H](O)c1ccc([N+](=O)[O-])cc1 [AD2646]
inhibition of SPM synthase activity (shape of curve) [1]: biphasic inhibition curve that superimposes on the PPMP inhibition curve | apoptosis of parasites [2]: failed to exhibit characteristic apoptosis | parasite growth [3]: inhibiting parasite growth totally | lysis of infected erythrocytes ([3]; infected cultures, Giemsa-stained smears): no preferential lysis of infected-erythrocytes | drug combination effect with artemether [4]: non-synergistic and non-antagonistic effect | drug combination effect with mefloquine [4]: non-synergistic and non-antagonistic effect | IC50 [5]: 45 nM | efficiency in inhibiting parasite development relative to PPMP ([6]; AD2646 versus PPMP): about 300 times | IC90 ([6]; Plasmodium falciparum, 48 h, Figure 3, series B, strain FcB1, 90% growth inhibition, read-out: CI90 (the source's name)): 57.7 ± 3.2 nM | IC50 ([6]; Plasmodium falciparum, Figure 3, series B (methylene or thiourea linkage), strain FcB1, read-out: CI50 (the source's name)): 30.8 ± 4.6 nM
